In PubChem BioAssay AID248 (DTP/NCI, 2004) one finds T/C data, which are given here for 20 compounds.

“And” between values parts separate entries of the source, which are not always exact repeats. Equal entries are not always repeated. Toxic doses and inconclusive results are not listed.

This assay has as its system L1210 leukemia ip in BDF1 mice, survival T/C. The assay is described as follows: NCI In Vivo Anticancer Drug Screen. Data for tumor model L1210 Leukemia (intraperitoneal) in B6D2F1 (BDF1) mice. The settings on record: endpoint: mean survival time, higher = longer survival. The gist of the method: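 Transplantable tumor model; survival measured in treated vs vehicle control mice. Value = treated/control.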

[1] abbreviates: dose: 100.0 mg/kg/injection, schedule: Q01DX001 (ip), vehicle: saline.
The mark [2] stands for this setting: dose: 100.0 mg/kg/injection, schedule: Q04DX003 (ip), vehicle: saline.
[3] abbreviates: dose: 200.0 mg/kg/injection, schedule: Q01DX001 (ip), vehicle: saline.
The mark [4] stands for this setting: dose: 200.0 mg/kg/injection, schedule: Q04DX003 (ip), vehicle: saline.
The mark [5] stands for this setting: dose: 400.0 mg/kg/injection, schedule: Q01DX001 (ip), vehicle: saline.
[6] abbreviates: dose: 400.0 mg/kg/injection, schedule: Q04DX003 (ip), vehicle: saline.
[7] abbreviates: dose: 100.0 mg/kg/injection, schedule: Q01DX009 (ip), vehicle: saline.
Setting [8] is: dose: 200.0 mg/kg/injection, schedule: Q01DX009 (ip), vehicle: saline.
Where [9] appears, read: dose: 100.0 mg/kg/injection, schedule: Q04DX003 (ip), vehicle: Klucel (hydroxypropylcellulose) (HPC).
Where [10] appears, read: dose: 200.0 mg/kg/injection, schedule: Q04DX003 (ip), vehicle: Klucel (hydroxypropylcellulose) (HPC).
Where [11] appears, read: dose: 400.0 mg/kg/injection, schedule: Q04DX003 (ip), vehicle: Klucel (hydroxypropylcellulose) (HPC).
The mark [12] stands for this setting: dose: 50.0 mg/kg/injection, schedule: Q01DX009 (ip), vehicle: Klucel (hydroxypropylcellulose) (HPC).
[13] abbreviates: dose: 100.0 mg/kg/injection, schedule: Q01DX009 (ip), vehicle: Klucel (hydroxypropylcellulose) (HPC).
Where [14] appears, read: dose: 200.0 mg/kg/injection, schedule: Q01DX009 (ip), vehicle: Klucel (hydroxypropylcellulose) (HPC).
Setting [15] is: dose: 400.0 mg/kg/injection, schedule: Q01DX009 (ip), vehicle: Klucel (hydroxypropylcellulose) (HPC).

Consider `COC(=O)c1cccc(C)n1`, for which the T/C is 94 % of control under setting [1]; 104 % of control under setting [2]; 100 % of control under setting [3]; 97 % of control under setting [4]; 96 % of control under setting [5]; 92 % of control under setting [6].
Turning to `O=C(O)c1ccc(F)cc1O`, the T/C under setting [1] is 97 % of control and the T/C under setting [3] is 109 % of control.
In the case of `OC(CC(O)(C(F)(F)F)C(F)(F)F)c1cccc(Cl)c1` (configuration not stated), the T/C runs as follows: (dose: 50.0 mg/kg/injection, schedule: Q01DX009 (ip), vehicle: gum acacia) 96 % of control; (dose: 100.0 mg/kg/injection, schedule: Q01DX009 (ip), vehicle: gum acacia) 94 % of control; (dose: 100.0 mg/kg/injection, schedule: Q04DX003 (ip), vehicle: gum acacia) 104 % of control; (dose: 200.0 mg/kg/injection, schedule: Q04DX003 (ip), vehicle: gum acacia) 95 % of control.
In the case of `CCCC(CCC)=NCCN=C(CCC)CCC`, the T/C under setting [7] was 97 % of control and the T/C under setting [8] was 94 % of control.
As for `O=c1[nH]cnc2c1ncn2CCCCCCl`, the T/C under setting [9] was 102 % of control.
As for `CCCCCCCCCCC[As](=O)(O)CCCCCCCCCCC`, the T/C runs as follows: (dose: 50.0 mg/kg/injection, schedule: Q01DX001 (ip), vehicle: saline) 103 % of control; under setting [1], 97 % of control; under setting [3], 103 % of control; under setting [5], 101 % of control.
`CCOC(=O)CNC(=O)C(OC(C)=O)C(OC(C)=O)C(=O)O` (configuration not stated): the T/C is, setting by setting: (dose: 100.0 mg/kg/injection, schedule: Q04DX003 (ip), vehicle: water) 97 % of control; (dose: 200.0 mg/kg/injection, schedule: Q04DX003 (ip), vehicle: water) 92 % of control; (dose: 400.0 mg/kg/injection, schedule: Q04DX003 (ip), vehicle: water) 92 % of control.
For the compound `Cc1cc(O)c(O)c(S(=O)(=O)c2ccc(N)cc2)c1`, the T/C (dose: 75.0 mg/kg/injection, schedule: Q01DX009 (ip), vehicle: carboxymethylcellulose (CMC)) was 93 % of control; the T/C (dose: 150.0 mg/kg/injection, schedule: Q01DX009 (ip), vehicle: carboxymethylcellulose (CMC)) was 89 % of control; the T/C (dose: 300.0 mg/kg/injection, schedule: Q01DX009 (ip), vehicle: carboxymethylcellulose (CMC)) is 86 % of control.
On to `CCCCC(CCC)(CCC)CCN`, for which the T/C (dose: 2.0 mg/kg/injection, schedule: Q01DX001 (ip), vehicle: carboxymethylcellulose (CMC)) was 98 % of control; the T/C (dose: 2.5 mg/kg/injection, schedule: Q01DX015 (ip), vehicle: carboxymethylcellulose (CMC)) is 89 % of control; the T/C (dose: 4.0 mg/kg/injection, schedule: Q01DX001 (ip), vehicle: carboxymethylcellulose (CMC)) was 103 % of control; the T/C (dose: 5.0 mg/kg/injection, schedule: Q01DX015 (ip), vehicle: carboxymethylcellulose (CMC)) was 94 % of control; the T/C (dose: 8.0 mg/kg/injection, schedule: Q01DX001 (ip), vehicle: carboxymethylcellulose (CMC)) was 108 % of control; the T/C (dose: 10.0 mg/kg/injection, schedule: Q01DX015 (ip), vehicle: carboxymethylcellulose (CMC)) is 93 % of control. Moreover, the T/C (dose: 16.0 mg/kg/injection, schedule: Q01DX001 (ip), vehicle: carboxymethylcellulose (CMC)) is 90 % of control.
As to `CCOC(=O)c1ccc(Cl)cc1`, the T/C was 88 % of control (dose: 100.0 mg/kg/injection, schedule: Q01DX009 (ip), vehicle: saline with Tween-80); 97 % of control under setting [9]; 102 % of control under setting [10]; 102 % of control under setting [11].
For the compound `Nc1ccccc1SC1CC(=O)N(c2ccc(F)cc2)C1=O` (configuration not stated), the T/C is 92 % of control (dose: 100.0 mg/kg/injection, schedule: Q04DX003 (ip), vehicle: carboxymethylcellulose (CMC)); 92 % of control (dose: 200.0 mg/kg/injection, schedule: Q04DX003 (ip), vehicle: carboxymethylcellulose (CMC)); 91 % of control (dose: 400.0 mg/kg/injection, schedule: Q04DX003 (ip), vehicle: carboxymethylcellulose (CMC)).
`O=C1NC(=O)C2(CCc3ccccc3C2)N1` (configuration not stated): the T/C was 96 % of control under setting [12]; 96 % of control under setting [13]; 100 % of control under setting [9]; 96 % of control (dose: 100.0 mg/kg/injection, schedule: Q04DX003 (ip), vehicle: acetone); 93 % of control under setting [14]; 97 % of control under setting [10]. In addition, the T/C is, setting by setting: (dose: 200.0 mg/kg/injection, schedule: Q04DX003 (ip), vehicle: acetone) 95 % of control; under setting [11], 97 % of control; (dose: 400.0 mg/kg/injection, schedule: Q04DX003 (ip), vehicle: acetone) 95 % of control.
As for `COc1ccc(C(O)c2cnc(C)n2Cc2ccccc2)cc1` (configuration not stated), the T/C (dose: 100.0 mg/kg/injection, schedule: Q01DX001 (ip), vehicle: Klucel (hydroxypropylcellulose) (HPC)) is 93 % of control; the T/C under setting [13] is 101 % of control and 105 % of control; the T/C (dose: 100.0 mg/kg/injection, schedule: Q04DX002 (ip), vehicle: Klucel (hydroxypropylcellulose) (HPC)) was 94 % of control and 98 % of control and 106 % of control; the T/C under setting [9] was 93 % of control; the T/C (dose: 200.0 mg/kg/injection, schedule: Q01DX001 (ip), vehicle: Klucel (hydroxypropylcellulose) (HPC)) was 102 % of control; the T/C under setting [14] is 100 % of control and 101 % of control. Also, the T/C (dose: 200.0 mg/kg/injection, schedule: Q04DX002 (ip), vehicle: Klucel (hydroxypropylcellulose) (HPC)) was 92 % of control and 95 % of control and 88 % of control; the T/C under setting [10] was 93 % of control; the T/C (dose: 400.0 mg/kg/injection, schedule: Q01DX001 (ip), vehicle: Klucel (hydroxypropylcellulose) (HPC)) is 97 % of control; the T/C under setting [15] is 96 % of control and 90 % of control; the T/C (dose: 400.0 mg/kg/injection, schedule: Q04DX002 (ip), vehicle: Klucel (hydroxypropylcellulose) (HPC)) is 95 % of control and 98 % of control and 91 % of control; the T/C under setting [11] is 95 % of control.
Regarding `OCCCC1CCCCC1`, the T/C runs as follows: (dose: 50.0 mg/kg/injection, schedule: Q01DX009 (ip), vehicle: saline) 97 % of control; under setting [7], 175 % of control; under setting [8], 103 % of control.
As for `COc1ccc(/C=C2\CN(CCC(=O)O)C(=O)C2=O)cc1`, the T/C under setting [1] was 103 % of control; the T/C under setting [2] is 98 % of control; the T/C under setting [3] is 98 % of control; the T/C under setting [4] was 98 % of control; the T/C under setting [5] is 98 % of control; the T/C under setting [6] is 98 % of control.
Turning to `CC(C)(CNC1CCCC1)OC(=O)c1ccccc1`, the T/C reads like this: (dose: 75.0 mg/kg/injection, schedule: Q01DX001 (ip), vehicle: saline) 97 % of control and 95 % of control; (dose: 150.0 mg/kg/injection, schedule: Q01DX001 (ip), vehicle: saline) 107 % of control.
As for `Cc1ccc([PH+](c2ccc(C)cc2)c2ccc(C)cc2)cc1.Cc1ccc([PH+](c2ccc(C)cc2)c2ccc(C)cc2)cc1.[Cl][Hg][Cl]`, the T/C runs as follows: under setting [12], 86 % of control; under setting [13], 91 % of control; under setting [14], 86 % of control.
Take `O=C(O)C(CSC(c1ccccc1)c1ccccc1)NC(=O)C(c1ccccc1)c1ccccc1` (configuration not stated): the T/C is, setting by setting: under setting [13], 112 % of control; under setting [9], 97 % of control; under setting [14], 101 % of control; under setting [10], 99 % of control; under setting [15], 98 % of control; under setting [11], 94 % of control.
In the case of `CCCc1ccc(OCC(=O)O)c(OC)c1`, the T/C is 93 % of control (dose: 75.0 mg/kg/injection, schedule: Q01DX001 (ip), vehicle: acetone); 92 % of control (dose: 150.0 mg/kg/injection, schedule: Q01DX001 (ip), vehicle: acetone); 88 % of control (dose: 300.0 mg/kg/injection, schedule: Q01DX001 (ip), vehicle: acetone).
As for `Cc1cc(N(CCCOS(C)(=O)=O)CCCOS(C)(=O)=O)ccc1C=Nc1ccc2ccccc2c1`, the T/C was 98 % of control (dose: 25.0 mg/kg/injection, schedule: Q04DX003 (ip), vehicle: saline with Tween-80); 98 % of control (dose: 50.0 mg/kg/injection, schedule: Q04DX003 (ip), vehicle: saline with Tween-80); 98 % of control (dose: 100.0 mg/kg/injection, schedule: Q04DX003 (ip), vehicle: saline with Tween-80); 93 % of control (dose: 400.0 mg/kg/injection, schedule: Q04DX003 (ip), vehicle: saline with Tween-80).
